Results: PubChem BioAssay (NCI)
“And” between values parts separate entries of the source, which are not always exact repeats. Equal entries are not always repeated.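 The compound was tested at five concentrations on cells cultured in 96-well plates, with a 48-hour exposure period. GI50: concentration for 50% inhibition of growth. Definition used: TGI = concentration required for complete inhibition of growth.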

How the values were obtained:
Assay in all cases: growth of human tumour cells (NCI), 48 h
[1] = tested on: A549 NSCLC
[2] = tested on: HT29 colon
[3] = tested on: ACHN renal
[4] = tested on: T-47D breast
[5] = tested on: 786-0 renal
[6] = tested on: HS 578T breast
[7] = tested on: HCC-2998 colon
[8] = tested on: HL-60(TB) leukemia
[9] = tested on: OVCAR-8 ovarian
[10] = tested on: MOLT-4 leukemia

SMILES | GI50 [1] [µM] | TGI [1] | GI50 [2] [µM] | TGI [2] [µM] | GI50 [3] [µM] | TGI [3] | GI50 [4] [µM] | TGI [4] [µM] | GI50 [5] [µM] | TGI [5] [µM] | GI50 [6] [µM] | TGI [6] [µM] | GI50 [7] [µM] | TGI [7] [µM] | GI50 [8] [µM] | TGI [8] [µM] | GI50 [9] [µM] | TGI [9] | GI50 [10] [µM] | TGI [10] [µM]
COc1cc(/C=C/C(=O)c2ccc(Nc3nc(Nc4ccccc4)nc(Nc4ccc(Cl)cc4)n3)cc2)cc(OC)c1OC | > 32.5 | > 32.5 µM | 5.39 | > 32.5 | 10.8 | > 32.5 µM | 3.03 | > 32.5 | 9.84 | > 32.5 | 15.2 | > 32.5 | > 32.5 | > 32.5 | 1.18 | 11.3 | 3.34 | > 32.5 µM | 2.65 | > 32.5
CS(=O)(=O)c1nc(Cl)c(Cl)c(C#N)c1Cl |  | 40.4 µM |  | 4.35 |  | 5.26 µM |  | 4.83 |  | 4.11 |  | > 58.7 |  | 29.8 |  | > 100 |  | 9.77 µM |  | 6.02
CC[C@@]1(OC(=O)CN)C(=O)OCc2c1cc1n(c2=O)Cc2cc3c(N)c4c(cc3nc2-1)OCO4 | 0.000195 | 0.233 µM and 1.01 µM |  | > 100 | < 0.0001 | 0.104 µM and 0.0152 µM |  | > 100 | < 0.0001 | 0.0093 | 0.232 |  | 0.0116 | 0.969 | < 0.0001 | 0.111 | 0.000109 | 0.107 µM and 0.0128 µM | < 0.0001 | 0.146
Cc1cc2nc3c4ccccc4n(CCN(C)C)c3nc2cc1C | 1.28 | 11.5 µM | 0.76 | 4.26 | 0.555 | 11.3 µM | 2.8 | 12.6 | 1.97 | 12.2 | 1.57 | 5.76 | 1.47 | 4.13 | 1.99 | 6.26 | 1.16 | 12.4 µM | 0.555 | 9.9
Cc1cc2c(C(C)C)c(O)c(O)c(C=O)c2c(O)c1-c1c(C)cc2c(C(C)C)c(O)c(O)c(C=O)c2c1O (tested in a mixture with another compound) | 0.468 | 2.38 µM | 1.61 | 3.51 | 0.545 | 2.21 µM | 1.77 | 7.03 | 0.819 | 3.29 | 0.543 | 4.33 | 0.484 | 1.76 | 0.535 | 5.74 | 1.18 | 3.49 µM | 0.748 | 13.6
CC(=O)N[C@@H](Cc1ccc(OP(=O)(O)O)cc1)C(=O)N[C@H]1CCC(=O)N2CCC[C@@H](C(=O)NCc3ccc(O)cc3)N2C1=O | > 25 | > 25 µM | > 25 | > 25 | > 25 | > 25 µM | > 25 | > 25 | > 25 | > 25 | > 25 | > 25 | > 25 | > 25 | > 25 | > 25 | > 25 | > 25 µM | > 25 | > 25
Brc1ccc(Br)nn1 | 12.5 | 32.4 µM | 3.38 | > 22.3 | 1.8 | 3.26 µM | 1.36 | 3.77 | 2.11 | 4.75 | 1.75 | 28.1 | 1.98 | 4.94 | 1.22 | 4.85 | 2.4 | 9.26 µM | 1.69 | 5.48
COC(=O)Nc1nc2ccc(Sc3ccccc3)cc2[nH]1 | 0.208 | 5.96 µM | 0.0494 | 1.29 | 1.19 | 22.9 µM | 0.436 | > 81.2 | 0.323 | 14.6 | 0.26 | 11.2 | 0.22 | 3.03 | 0.0805 | 0.455 | 0.298 | 3.99 µM | 0.262 | 
CON | > 100 | > 100 µM | > 100 | > 100 | > 100 | > 100 µM | > 100 | > 100 | > 100 | > 100 | > 100 | > 100 | > 100 | > 100 | > 100 | > 100 | > 100 | > 100 µM | > 100 | > 100
O=C1c2ccccc2C(=O)c2sc(Nc3ccc(Cl)c(Cl)c3)nc21 |  | 54.5 µM |  | 42.5 |  | 3.17 µM |  | 22.7 |  | 3.59 |  | 53.2 |  | 29.3 |  | 1.18 |  | 8.02 µM |  | 6.37
ClC1=C(Cl)C(Cl)=C(Cl)C1=Cc1ccc(Cl)cc1 | 0.918 | 2.54 µM | 0.27 | 0.735 | 0.327 | 1.07 µM | 0.484 | 2.04 | 0.604 | 1.64 | 0.585 |  | 1.14 | 2.54 | 1.21 | 5.86 | 0.36 | 2.27 µM | 0.356 | 2.96
CC(=O)OCC(=O)C1(O)C(C)CC2C3C=C(C)C4=Cc5c(cnn5-c5ccccc5)CC4(C)C3C(O)CC21C (stereo not given) | 1.34 | 13.5 µM | 0.971 | 2.42 | 2.16 | 9.03 µM | 2.63 | 9.39 | 1.49 | 3.22 | 1.17 | 4.75 | 1.92 | 3.66 | 2.44 | 9.74 | 2.46 | 25.5 µM | 0.753 | > 22
C=C=[CH][Sn]([c]1ccccc1)([c]1ccccc1)[c]1ccccc1 | 1.91 | 4.42 µM | 1.21 | 2.45 | 1.66 | 3.16 µM | 1.29 | 2.82 | 1.51 | 2.92 | 2.06 | 7.37 | 1.76 | 3.36 | 1.78 | 4.57 | 1.85 | 3.68 µM | 1.14 | 6.49
CSc1ccc(C2=NN(C(=O)c3ccc(N)cc3)C(c3ccc(F)cc3)C2)cc1 (stereo not given) | 13.7 | 32.7 µM | 3.72 | 17.5 | 7.35 | 19.7 µM | 6.45 | 27.6 | 13.5 | 27.1 | 21.4 | 55.8 | 8.79 | 21.8 | 10.5 | 36.1 | 16.1 | 32.5 µM | 10.5 | 38.2
O=P1(O)c2ccccc2CS(=O)(=O)Cc2ccccc21 |  | > 100 µM |  | > 100 |  | > 100 µM |  | > 100 |  | > 100 |  | > 100 |  | > 100 |  | > 100 |  | > 100 µM |  | > 100
COc1cnc2c(c1)C(=O)c1c-2n(CCCN2CCN(CCO)CC2)c(=O)c2cc([N+](=O)[O-])ccc12 | 1.13 | 2.48 µM | 1.24 | 2.63 | 0.738 | 15.9 µM | 12.8 | 46.5 | 1.61 | 3.13 | 14.7 | 42.1 | 11.7 | 24.9 | 1.69 | 5.27 | 1.39 | 5.03 µM | 0.552 | 4.45
COc1cc(C2C(C#N)=C(N)Oc3cc4c(cc32)OCO4)cc2c1OCO2 (stereo not given) | 0.384 | > 100 µM | 0.324 | > 59.7 | 2.3 | > 100 µM | 3.38 | > 100 | 0.597 | > 90.9 | 0.328 | > 100 | 0.352 | 6.11 | 0.219 | 0.715 | 0.466 | > 100 µM | 0.935 | 49.5
CNCCOc1nc2c3cnccc3cc(-c3cc(OC)c(OC)c(OC)c3)c2c2ccncc12 | 0.01 | 0.101 µM | 0.0372 | 1.07 | 0.015 | 0.0598 µM | 0.0296 | 0.48 | 0.0194 | 0.175 | 0.139 | 0.747 | 0.0454 | 0.213 | < 0.0153 | 0.0685 | 0.0418 | 0.466 µM | < 0.01 | 0.0478
COc1cc2c3c(c1O)C1(C=CC(=O)C=C1)CC3N(C)CC2 (stereo not given) |  | > 100 µM |  | 23.4 |  | 43.4 µM |  | 26.2 |  | 15.6 |  | > 100 |  | 24.8 |  | 10.9 |  | 38.4 µM |  | 37.3
CCCCCCC1N=C(N)N=C(N)N1c1ccc(Cl)cc1 (stereo not given) | 4.83 | > 100 µM | 2.66 | 16.8 | > 100 | > 100 µM | 20 | 70.5 | 4.63 | 47.1 | 2.35 | 18.2 | 8.95 | 22 | 10.1 | 28.3 | 6.43 | > 100 µM | 7.03 | 32.5
